Marks after values point to notes of the source that are not given here.
Legend:
[1] = system: fusarium graminearium; assay: Test I: wheat head scab, preventive spray on wheat seedlings; conditions: 200 ppm
Description: (the causal agent of wheat head scab) and incubated in a saturated atmosphere at 20° C. for 72 h, and then moved to a growth chamber at 22° C. for 5 days, after which disease ratings were made.

[2] = system: Plasmopara viticola; assay: Test D: grape downy mildew, spray after inoculation of grape seedlings; assay type: in vivo; conditions: 200 ppm
Description: Upon removal, disease ratings were made. […] A dash (-) indicates no test results.

[3] = system: Septoria tritici; assay: Test J: wheat leaf blotch, preventive spray on wheat seedlings; assay type: in vivo
Description: A dash (-) indicates no test results.

[4] = system: Sclerotinia sclerotiorum; assay: Test C: cucumber white mold, preventive spray on cucumber seedlings; conditions: 200 ppm
[5] = system: Rhizoctonia oryzae; assay: Test G: turf brown patch, preventive spray on creeping bent grass seedlings
Description: (the causal agent of turf brown patch) and incubated in a saturated atmosphere at 27° C. for 24 h, and then moved to a growth chamber at 27° C. for 5 days, after which disease ratings were made.

[6] = system: Puccinia recondita f. sp. tritici; assay: Test K: wheat leaf rust, preventive spray on wheat seedlings
[7] = system: Colletotrichum orbiculare; assay: Test B: cucumber Colletotrichum anthracnose, preventive spray on cucumber seedlings
[8] = system: Phytophthora infestans; assay: whole plant or invertebrate; assay type: in vivo; conditions: 200 ppm
[9] = system: Pythium aphanidermatum; assay: Test A: bluegrass pythium blight, preventive spray on bluegrass seedlings; conditions: 200 ppm
[10] = system: Botrytis cinerea; assay: Test E: tomato botrytis, preventive spray on tomato seedlings
[11] = system: Septoria nodorum; assay: Test H: wheat glum blotch, preventive spray on wheat seedlings
Description: (the causal agent of wheat glum blotch) and incubated in a saturated atmosphere at 20° C. for 48 h, and then moved to a growth chamber at 22° C. for 5 days, after which disease ratings were made.

[12] = system: Erysiphe graminis f. sp. tritici; assay: Test L: wheat powdery mildew, preventive spray on wheat seedlings

## CC(C)Cn1c(-c2cc(Br)c3c(c2)OCO3)c(Cl)nc(-n2cncn2)c1=O [compound 115]
[1]
  Test I disease control rating: 0%
[2]
  Test D disease control rating: 0%
[3]; 40 ppm (*)
  Test J disease control rating: 0* %
[4]
  Test C disease control rating: 0%
[5]; 40 ppm (*)
  Test G disease control rating: 0* %
[6]; 40 ppm (*)
  Test K disease control rating: 0* %
[7]; 40 ppm (*)
  Test B disease control rating: 0* %
[8]
  Test F disease control rating: 0%
[9]
  Test A disease control rating: 0%
[10]; 40 ppm (*)
  Test E disease control rating: 0* %
[11]; 40 ppm (*)
  Test H disease control rating: 0* %
[12]; 40 ppm (*)
  Test L disease control rating: 0* %

## CC(C)Cn1c(-c2cc(Cl)cc(Cl)c2)c(Cl)nc(-n2cncn2)c1=O [compound 116]
[1]
  Test I disease control rating: 0%
[2]
  Test D disease control rating: 0%
[3]; 40 ppm (*)
  Test J disease control rating: 5* %
[4]
  Test C disease control rating: 0%
[5]; 40 ppm (*)
  Test G disease control rating: 0* %
[6]; 40 ppm (*)
  Test K disease control rating: 0* %
[7]; 40 ppm (*)
  Test B disease control rating: 0* %
[8]
  Test F disease control rating: 53%
[9]
  Test A disease control rating: 0%
[10]; 40 ppm (*)
  Test E disease control rating: 0* %
[11]; 40 ppm (*)
  Test H disease control rating: 0* %
[12]; 40 ppm (*)
  Test L disease control rating: 0* %

## CC(C)Cn1c(-c2ccc(C(F)(F)F)cc2F)c(Cl)nc(-n2cncn2)c1=O [compound 117]
[1]
  Test I disease control rating: 83%
[2]
  Test D disease control rating: 0%
[3]; 40 ppm (*)
  Test J disease control rating: 2* %
[4]
  Test C disease control rating: 0%
[5]; 40 ppm (*)
  Test G disease control rating: 0* %
[6]; 40 ppm (*)
  Test K disease control rating: 0* %
[7]; 40 ppm (*)
  Test B disease control rating: 0* %
[8]
  Test F disease control rating: 0%
[9]
  Test A disease control rating: 0%
[10]; 40 ppm (*)
  Test E disease control rating: 0* %
[11]; 40 ppm (*)
  Test H disease control rating: 0* %
[12]; 40 ppm (*)
  Test L disease control rating: 0* %

## CC(C)Cn1c(-c2ccc(Cl)cc2Cl)c(Cl)nc(-n2cncn2)c1=O [compound 118]
[1]
  Test I disease control rating: 81%
[2]
  Test D disease control rating: 0%
[3]; 200 ppm
  Test J disease control rating: 100%
[4]
  Test C disease control rating: 98%
[5]; 200 ppm
  Test G disease control rating: 71%
[6]; 200 ppm
  Test K disease control rating: 91%
[7]; 200 ppm
  Test B disease control rating: 96%
[8]
  Test F disease control rating: 16%
[9]
  Test A disease control rating: 0%
[10]; 200 ppm
  Test E disease control rating: 99%
[11]; 200 ppm
  Test H disease control rating: 92%
[12]; 200 ppm
  Test L disease control rating: 0%

## CC(C)Cn1c(-c2ccc3ccccc3c2)c(Cl)nc(-n2cncn2)c1=O [compound 119]
[1]
  Test I disease control rating: 76%
[2]
  Test D disease control rating: 0%
[3]; 40 ppm (*)
  Test J disease control rating: 68* %
[4]
  Test C disease control rating: 0%
[5]; 40 ppm (*)
  Test G disease control rating: 0* %
[6]; 40 ppm (*)
  Test K disease control rating: 0* %
[7]; 40 ppm (*)
  Test B disease control rating: 0* %
[8]
  Test F disease control rating: 0%
[9]
  Test A disease control rating: 0%
[10]; 40 ppm (*)
  Test E disease control rating: 0* %
[11]; 40 ppm (*)
  Test H disease control rating: 0* %
[12]; 40 ppm (*)
  Test L disease control rating: 0* %

— US20080194585A1, “Fungicidal Pyrazine Derivatives” (priority 2005, published 2008)
